{"source": "patent US20200383961A1", "about": "“TRIPLET THERAPIES OF HDAC INHIBITORS, PD-L1 AND/OR PD-1 INHIBITORS, AND CTLA-4 INHIBITORS” (HUYA Bioscience International, LLC, priority 2019, published 2020)", "key": {"RR/PTCL": {"test_system": "RR/PTCL", "conditions": "historical benchmark, cited from earlier work"}, "[1]": {"experiment": "Tolerability of compounds of formula I, nivolumab and their combination (adverse events)", "type": "in vivo, human", "conditions": "for TRAE Anemia G1-2 / TRAE Anemia G3 / TRAE Anemia G4 / TRAE Diarrhea G1-2 / TRAE Diarrhea G3 / TRAE Diarrhea G4 / TRAE Fatigue G1-2 / TRAE Fatigue G3 / TRAE Fatigue G4 / TRAE Hypophospatemia G1-2 / TRAE Hypophospatemia G3 / TRAE Hypophospatemia G4 / TRAE Lymphocyte decrease G1-2 / TRAE Lymphocyte decrease G3 / TRAE Lymphocyte decrease G4 / TRAE Neutrophil decrease G1-2 / TRAE Neutrophil decrease G3 / TRAE Neutrophil decrease G4 / TRAE Platelet decrease G1-2 / TRAE Platelet decrease G3 / TRAE Platelet decrease G4 / TRAE WBC decrease G1-2 / TRAE WBC decrease G3 / TRAE WBC decrease G4: TRAE >= 5% frequency, by association", "experimental": "The tolerability of the compounds of formula I, nivolumab, and a combination of the compounds of formula I and nivolumab were tested. The Phase 2 clinical dosage of 30 mg BIW of the compounds of formula I was administered."}, "[2]": {"test_system": "tumor micro-environment (TME)", "conditions": "cited from earlier work"}, "[3]": {"test_system": "relapsed or refractory peripheral T-cell lymphoma (RR/PTCL)", "experiment": "Phase 2 monotherapy in relapsed or refractory peripheral T-cell lymphoma", "type": "in vivo, human", "experimental": "The compounds of formula I were used as a monotherapy for relapsed or refractory peripheral T-cell lymphoma (“RR/PTCL”). A dosage of 40 mg biw was approved for this study. A summary of the results is found in Table 10. […] The time after prior treatment was 96 days (vs. 222 days for romidepsin P2 trial). […] The median PFS (months) was 7.6."}, "RR/ATL [4]": {"test_system": "RR/ATL", "experiment": "Historical benchmarks for RR/ATL treatments", "type": "in vivo, human", "conditions": "Phase I, listed among benchmarks", "experimental": "(§1) The compounds of formula I were used as a monotherapy for relapsed or refractory aggressive adult T-cell lymphoma (“RR/ATL”). A dosage of 40 mg biw was approved for this study. A summary of the results is found in Table 12. […] The time after prior treatment was 88 days (vs. 234 days for lenalidomide P2 trial). All patients had received mogamulizumab (“moga”) (lenalidomide ORR in moga patients was 18%)."}, "[5]": {"test_system": "relapsed or refractory aggressive adult T-cell lymphoma (RR/ATL)", "experiment": "Phase 2 monotherapy in relapsed or refractory aggressive adult T-cell lymphoma", "type": "in vivo, human", "conditions": "20 evaluable, 40 mg biw monotherapy", "experimental": "as §1"}, "RR/ATL [6]": {"test_system": "RR/ATL", "conditions": "cited from earlier work; for ORR: historical benchmark, RR/ATL"}, "[7]": {"conditions": "43 evaluable, 40 mg biw monotherapy"}, "[8]": {"conditions": "number of patients, 43 evaluable, 40 mg biw monotherapy"}, "[9]": {"conditions": "less frequent TRAEs associated with NIVO alone"}}, "note": "Like-named read-outs stand apart in the source and are kept apart here."}
{"molecule": "Nc1cc(F)ccc1NC(=O)c1ccc(CNC(=O)/C=C/c2cccnc2)cc1", "note": "[Epidaza]", "values": [{"measurement": "ORR (PMS)", "setting": "RR/PTCL; value in brackets, PMS", "result": 35, "unit": "%"}, {"measurement": "ORR", "setting": "RR/PTCL", "result": 28, "unit": "%"}]}
{"molecule": "O=c1[nH]cnc2c([C@@H]3N[C@H](CO)[C@@H](O)[C@H]3O)c[nH]c12", "note": "[Forodesine]", "values": [{"measurement": "ORR", "setting": "RR/PTCL", "result": 22, "unit": "%"}]}
{"molecule": "Nc1cc(F)ccc1NC(=O)c1ccc(CNC(=O)/C=C/c2cccnc2)cc1", "note": "[HBI-8000, N-(2-amino-4-fluorophenyl)-4-[[[(2E)-1-oxo-3-(3-pyridinyl)-2-propen-1-yl]amino]methyl]benzamide]", "values": [{"measurement": "TRAE Anemia G1-2", "setting": "[1]", "result": "14 (22) n (% of N)"}, {"measurement": "TRAE Anemia G3", "setting": "[1]", "result": "1 (2) n (% of N)"}, {"measurement": "TRAE Anemia G4", "setting": "[1]", "result": "0 n (% of N)"}, {"measurement": "TRAE Diarrhea G1-2", "setting": "[1]", "result": "0 n (% of N)"}, {"measurement": "TRAE Diarrhea G3", "setting": "[1]", "result": "0 n (% of N)"}, {"measurement": "TRAE Diarrhea G4", "setting": "[1]", "result": "0 n (% of N)"}, {"measurement": "TRAE Fatigue G1-2", "setting": "[1]", "result": "0 n (% of N)"}, {"measurement": "TRAE Fatigue G3", "setting": "[1]", "result": "0 n (% of N)"}, {"measurement": "TRAE Fatigue G4", "setting": "[1]", "result": "0 n (% of N)"}, {"measurement": "TRAE Hypophospatemia G1-2", "setting": "[1]", "result": "6 (10) n (% of N)"}, {"measurement": "TRAE Hypophospatemia G3", "setting": "[1]", "result": "4 (6) n (% of N)"}, {"measurement": "TRAE Hypophospatemia G4", "setting": "[1]", "result": "0 n (% of N)"}, {"measurement": "TRAE Lymphocyte decrease G1-2", "setting": "[1]", "result": "0 n (% of N)"}, {"measurement": "TRAE Lymphocyte decrease G3", "setting": "[1]", "result": "0 n (% of N)"}, {"measurement": "TRAE Lymphocyte decrease G4", "setting": "[1]", "result": "0 n (% of N)"}, {"measurement": "TRAE Neutrophil decrease G1-2", "setting": "[1]", "result": "8 (13) n (% of N)"}, {"measurement": "TRAE Neutrophil decrease G3", "setting": "[1]", "result": "5 (8) n (% of N)"}, {"measurement": "TRAE Neutrophil decrease G4", "setting": "[1]", "result": "1 (2) n (% of N)"}, {"measurement": "TRAE Platelet decrease G1-2", "setting": "[1]", "result": "23 (37) n (% of N)"}, {"measurement": "TRAE Platelet decrease G3", "setting": "[1]", "result": "3 (5) n (% of N)"}, {"measurement": "TRAE Platelet decrease G4", "setting": "[1]", "result": "0 n (% of N)"}, {"measurement": "TRAE WBC decrease G1-2", "setting": "[1]", "result": "11 (17) n (% of N)"}, {"measurement": "TRAE WBC decrease G3", "setting": "[1]", "result": "1 (2) n (% of N)"}, {"measurement": "TRAE WBC decrease G4", "setting": "[1]", "result": "0 n (% of N)"}, {"measurement": "share of TRAEs associated with the agent", "setting": "[1]; among TRAEs, 63 subjects", "result": 39, "unit": "%"}, {"measurement": "PD-1 and PD-L1 expression", "setting": "[2]; \"cold\" tumors", "result": "increases"}, {"measurement": "apoptosis scores and signatures", "setting": "[2]; tumor cells", "result": "increasing"}, {"measurement": "conversion of M2 (suppressive) to M1 (antitumor) macrophages", "setting": "[2]; tumor micro-environment", "result": "promotes"}, {"measurement": "influx of CD8+ T cells and NK cells", "setting": "[2]; tumor micro-environment", "result": "increases"}, {"measurement": "number and activity of regulatory T cells (TREGs), myeloid-derived suppressor cells (MDSCs)", "setting": "[2]; tumor micro-environment", "result": "reduces"}, {"measurement": "ratio of active CD8+ effector T cells to \"exhausted\" CD8 T cells", "setting": "[2]; tumor micro-environment", "result": "increases"}, {"measurement": "DCR", "setting": "[3]; [7]", "result": 74, "unit": "%"}, {"measurement": "ORR", "setting": "[3]; [7]", "result": 46, "unit": "%"}, {"measurement": "median PFS", "setting": "[3]; estimated, PD date by investigator judgement, FIG. 7A", "result": 7.6, "unit": "months"}, {"measurement": "Complete Responses", "setting": "[3]; [8]", "result": 4}, {"measurement": "Partial Responses", "setting": "[3]; [8]", "result": 16}, {"measurement": "Stable Disease", "setting": "[3]; [8]", "result": 12}, {"measurement": "ORR", "setting": "RR/ATL [4]", "result": 75, "unit": "%"}, {"measurement": "DCR", "setting": "[5]", "result": 60, "unit": "%"}, {"measurement": "ORR", "setting": "[5]", "result": 40, "unit": "%"}, {"measurement": "Stable Disease", "setting": "[5]; number of patients", "result": 4}, {"measurement": "Partial Responses", "setting": "[5]; number of patients, all had received mogamulizumab", "result": 8}]}
{"molecule": "Nc1cccc2c1CN(C1CCC(=O)NC1=O)C2=O", "note": "(centres unmarked) [Lenalidomide]", "values": [{"measurement": "ORR", "setting": "RR/ATL [6]", "result": 42, "unit": "%"}, {"measurement": "ORR in moga patients", "setting": "RR/ATL [6]; patients who had received mogamulizumab, lenalidomide P2 trial", "result": 18, "unit": "%"}]}
{"molecule": "C#CCC(Cc1cnc2nc(N)nc(N)c2n1)c1ccc(C(=O)N[C@@H](CCC(=O)O)C(=O)O)cc1", "note": "(some centres unmarked) [Pralatrexate]", "values": [{"measurement": "ORR", "setting": "RR/PTCL", "result": 45, "unit": "%"}]}
{"molecule": "NIVO: fully human monoclonal antibody directed against PD-1", "values": [{"measurement": "TRAE Anemia G1-2", "setting": "[1]", "result": "0 n (% of N)"}, {"measurement": "TRAE Anemia G3", "setting": "[1]", "result": "0 n (% of N)"}, {"measurement": "TRAE Anemia G4", "setting": "[1]", "result": "0 n (% of N)"}, {"measurement": "TRAE Diarrhea G1-2", "setting": "[1]", "result": "4 (6) n (% of N)"}, {"measurement": "TRAE Diarrhea G3", "setting": "[1]", "result": "1 (2) n (% of N)"}, {"measurement": "TRAE Diarrhea G4", "setting": "[1]", "result": "0 n (% of N)"}, {"measurement": "TRAE Fatigue G1-2", "setting": "[1]", "result": "0 n (% of N)"}, {"measurement": "TRAE Fatigue G3", "setting": "[1]", "result": "0 n (% of N)"}, {"measurement": "TRAE Fatigue G4", "setting": "[1]", "result": "0 n (% of N)"}, {"measurement": "TRAE Hypophospatemia G1-2", "setting": "[1]", "result": "0 n (% of N)"}, {"measurement": "TRAE Hypophospatemia G3", "setting": "[1]", "result": "0 n (% of N)"}, {"measurement": "TRAE Hypophospatemia G4", "setting": "[1]", "result": "0 n (% of N)"}, {"measurement": "TRAE Lymphocyte decrease G1-2", "setting": "[1]", "result": "0 n (% of N)"}, {"measurement": "TRAE Lymphocyte decrease G3", "setting": "[1]", "result": "0 n (% of N)"}, {"measurement": "TRAE Lymphocyte decrease G4", "setting": "[1]", "result": "0 n (% of N)"}, {"measurement": "TRAE Neutrophil decrease G1-2", "setting": "[1]", "result": "0 n (% of N)"}, {"measurement": "TRAE Neutrophil decrease G3", "setting": "[1]", "result": "0 n (% of N)"}, {"measurement": "TRAE Neutrophil decrease G4", "setting": "[1]", "result": "0 n (% of N)"}, {"measurement": "TRAE Platelet decrease G1-2", "setting": "[1]", "result": "0 n (% of N)"}, {"measurement": "TRAE Platelet decrease G3", "setting": "[1]", "result": "0 n (% of N)"}, {"measurement": "TRAE Platelet decrease G4", "setting": "[1]", "result": "0 n (% of N)"}, {"measurement": "TRAE WBC decrease G1-2", "setting": "[1]", "result": "0 n (% of N)"}, {"measurement": "TRAE WBC decrease G3", "setting": "[1]", "result": "0 n (% of N)"}, {"measurement": "TRAE WBC decrease G4", "setting": "[1]", "result": "0 n (% of N)"}, {"measurement": "TRAE TSH increase", "setting": "[1]; [9]", "result": 5, "unit": "n"}, {"measurement": "TRAE amylase increase", "setting": "[1]; [9]", "result": 4, "unit": "n"}, {"measurement": "TRAE lipase increase", "setting": "[1]; [9]", "result": 6, "unit": "n"}, {"measurement": "TRAE rash", "setting": "[1]; [9]", "result": 10, "unit": "n"}]}
{"molecule": "Mogamulizumab: RR/ATL treatment, historical benchmark (antibody, chains of the INN, looked up, V domains shown) VH: EVQLVESGGDLVQPGRSLRLSCAASGFIFSNYGMSWVRQAPGKGLEWVATISSASTYSYYPDSVKGRFTISRDNAKNSLYLQMNSLRVEDTALYYCGRHSDGNFAFGYWGQGTLVTVSS VL: DVLMTQSPLSLPVTPGEPASISCRSSRNIVHINGDTYLEWYLQKPGQSPQLLIYKVSNRFSGVPDRFSGSGSGTDFTLKISRVEAEDVGVYYCFQGSLLPWTFGQGTKVEIK", "values": [{"measurement": "ORR", "setting": "RR/ATL [6]", "result": 50, "unit": "%"}]}
